Experimental data published in PubChem BioAssay (NCI).
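Cultured in 96-well plates, cells were exposed to test compound for 48 hours across five concentrations. Definition used: TGI = concentration required for complete inhibition of growth.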

What was measured:
Assay in all cases: inhibition of tumour cell growth, NCI panel, 48 h
MCF7 breast = test system: MCF7 breast
HCT-116 colon = test system: HCT-116 colon
NCI-H522 lung = test system: NCI-H522 lung
RXF 393 renal = test system: RXF 393 renal
U251 CNS = test system: U251 CNS
786-0 renal = test system: 786-0 renal
SK-MEL-2 melanoma = test system: SK-MEL-2 melanoma
HS 578T breast = test system: HS 578T breast
NCI/ADR-RES ovarian = test system: NCI/ADR-RES ovarian
HL-60(TB) leukemia = test system: HL-60(TB) leukemia
DU-145 prostate = test system: DU-145 prostate
OVCAR-8 ovarian = test system: OVCAR-8 ovarian
ACHN renal = test system: ACHN renal
SW-620 colon = test system: SW-620 colon
RPMI-8226 leukemia = test system: RPMI-8226 leukemia
K-562 leukemia = test system: K-562 leukemia
UO-31 renal = test system: UO-31 renal
A498 renal = test system: A498 renal
SK-MEL-5 melanoma = test system: SK-MEL-5 melanoma
IGROV1 ovarian = test system: IGROV1 ovarian
MDA-MB-435 = test system: MDA-MB-435
KM12 colon = test system: KM12 colon
OVCAR-3 ovarian = test system: OVCAR-3 ovarian
MOLT-4 leukemia = test system: MOLT-4 leukemia
T-47D breast = test system: T-47D breast
LOX IMVI melanoma = test system: LOX IMVI melanoma
UACC-257 melanoma = test system: UACC-257 melanoma
HT29 colon = test system: HT29 colon
HCT-15 colon = test system: HCT-15 colon
MDA-MB-231 breast = test system: MDA-MB-231 breast
NCI-H23 lung = test system: NCI-H23 lung
TK-10 renal = test system: TK-10 renal
MDA-N = test system: MDA-N
SF-295 CNS = test system: SF-295 CNS
PC-3 prostate = test system: PC-3 prostate
CAKI-1 renal = test system: CAKI-1 renal
SK-MEL-28 melanoma = test system: SK-MEL-28 melanoma
HOP-92 NSCLC = test system: HOP-92 NSCLC
OVCAR-4 ovarian = test system: OVCAR-4 ovarian
HCC-2998 colon = test system: HCC-2998 colon
NCI-H460 lung = test system: NCI-H460 lung
CCRF-CEM leukemia = test system: CCRF-CEM leukemia
OVCAR-5 ovarian = test system: OVCAR-5 ovarian
SF-539 CNS = test system: SF-539 CNS
SK-OV-3 ovarian = test system: SK-OV-3 ovarian
EKVX NSCLC = test system: EKVX NSCLC
NCI-H226 lung = test system: NCI-H226 lung
M14 melanoma = test system: M14 melanoma
HOP-62 NSCLC = test system: HOP-62 NSCLC
SF-268 CNS = test system: SF-268 CNS
MALME-3M melanoma = test system: MALME-3M melanoma
SNB-19 CNS = test system: SNB-19 CNS
SN12C renal = test system: SN12C renal
A549 NSCLC = test system: A549 NSCLC
SNB-75 CNS = test system: SNB-75 CNS
COLO 205 colon = test system: COLO 205 colon

SMILES: COc1ccc(C2=NN(C(=O)c3ccc(Cl)cc3)C(O)(c3cc(F)c(Cl)cc3Cl)C2)cc1OC (centres undefined)
- TGI (MCF7 breast): > 100 µM
- TGI (HCT-116 colon): > 100 µM
- TGI (NCI-H522 lung): > 100 µM
- TGI (RXF 393 renal): > 100 µM
- TGI (U251 CNS): > 100 µM
- TGI (786-0 renal): > 100 µM
- TGI (SK-MEL-2 melanoma): > 100 µM
- TGI (HS 578T breast): > 100 µM
- TGI (NCI/ADR-RES ovarian): > 100 µM
- TGI (HL-60(TB) leukemia): 2.2 µM
- TGI (DU-145 prostate): > 100 µM
- TGI (OVCAR-8 ovarian): > 100 µM
- TGI (ACHN renal): > 100 µM
- TGI (SW-620 colon): > 100 µM
- TGI (RPMI-8226 leukemia): > 100 µM
- TGI (K-562 leukemia): > 100 µM
- TGI (UO-31 renal): 10.9 µM
- TGI (A498 renal): > 100 µM
- TGI (SK-MEL-5 melanoma): > 100 µM
- TGI (IGROV1 ovarian): > 100 µM
- TGI (MDA-MB-435): > 100 µM
- TGI (KM12 colon): > 100 µM
- TGI (OVCAR-3 ovarian): > 100 µM
- TGI (MOLT-4 leukemia): > 100 µM
- TGI (T-47D breast): > 100 µM
- TGI (LOX IMVI melanoma): > 100 µM
- TGI (UACC-257 melanoma): > 100 µM
- TGI (HT29 colon): > 100 µM
- TGI (HCT-15 colon): > 100 µM
- TGI (MDA-MB-231 breast): > 100 µM
- TGI (NCI-H23 lung): > 100 µM
- TGI (TK-10 renal): > 100 µM
- TGI (MDA-N): > 100 µM
- TGI (SF-295 CNS): > 100 µM
- TGI (PC-3 prostate): > 100 µM
- TGI (CAKI-1 renal): 98.4 µM
- TGI (SK-MEL-28 melanoma): > 100 µM
- TGI (HOP-92 NSCLC): > 100 µM
- TGI (OVCAR-4 ovarian): > 100 µM
- TGI (HCC-2998 colon): > 100 µM
- TGI (NCI-H460 lung): > 100 µM
- TGI (CCRF-CEM leukemia): > 100 µM
- TGI (OVCAR-5 ovarian): > 100 µM
- TGI (SF-539 CNS): > 100 µM
- TGI (SK-OV-3 ovarian): > 100 µM
- TGI (EKVX NSCLC): > 100 µM
- TGI (NCI-H226 lung): > 100 µM
- TGI (M14 melanoma): > 100 µM
- TGI (HOP-62 NSCLC): > 100 µM
- TGI (SF-268 CNS): > 100 µM

SMILES: CC(=O)Nc1cc(C(=O)Nc2cc(C(=O)Nc3cc(C(=O)Nc4cc(C(=O)Nc5cc(C(=O)NCCC(=O)NCCCN(C)C)n(C)c5)n(C)c4)n(C)c3)n(C)c2)n(C)c1
- TGI (MCF7 breast): > 100 µM
- TGI (HCT-116 colon): > 100 µM
- TGI (NCI-H522 lung): 55.6 µM
- TGI (RXF 393 renal): > 100 µM
- TGI (U251 CNS): > 100 µM
- TGI (786-0 renal): > 100 µM
- TGI (SK-MEL-2 melanoma): > 100 µM
- TGI (HS 578T breast): > 100 µM
- TGI (MALME-3M melanoma): > 100 µM
- TGI (NCI/ADR-RES ovarian): > 100 µM
- TGI (HL-60(TB) leukemia): > 100 µM
- TGI (DU-145 prostate): > 100 µM
- TGI (OVCAR-8 ovarian): > 100 µM
- TGI (ACHN renal): > 100 µM
- TGI (SW-620 colon): > 100 µM
- TGI (RPMI-8226 leukemia): > 100 µM
- TGI (K-562 leukemia): > 100 µM
- TGI (UO-31 renal): > 100 µM
- TGI (A498 renal): > 100 µM
- TGI (SK-MEL-5 melanoma): > 100 µM
- TGI (SNB-19 CNS): > 100 µM
- TGI (SN12C renal): > 100 µM
- TGI (IGROV1 ovarian): > 100 µM
- TGI (MDA-MB-435): > 100 µM
- TGI (KM12 colon): > 100 µM
- TGI (OVCAR-3 ovarian): > 100 µM
- TGI (MOLT-4 leukemia): > 100 µM
- TGI (T-47D breast): 72.2 µM
- TGI (LOX IMVI melanoma): > 100 µM
- TGI (UACC-257 melanoma): > 100 µM
- TGI (HT29 colon): > 100 µM
- TGI (A549 NSCLC): > 100 µM
- TGI (HCT-15 colon): > 100 µM
- TGI (MDA-MB-231 breast): > 100 µM
- TGI (NCI-H23 lung): > 100 µM
- TGI (TK-10 renal): > 100 µM
- TGI (MDA-N): > 100 µM
- TGI (SF-295 CNS): > 100 µM
- TGI (PC-3 prostate): > 100 µM
- TGI (CAKI-1 renal): 44.6 µM
- TGI (SK-MEL-28 melanoma): > 100 µM
- TGI (HOP-92 NSCLC): 75 µM
- TGI (OVCAR-4 ovarian): > 100 µM
- TGI (HCC-2998 colon): > 100 µM
- TGI (SNB-75 CNS): > 100 µM
- TGI (COLO 205 colon): > 100 µM
- TGI (NCI-H460 lung): > 100 µM
- TGI (CCRF-CEM leukemia): 73.9 µM
- TGI (OVCAR-5 ovarian): > 100 µM
- TGI (SF-539 CNS): > 100 µM
- TGI (SK-OV-3 ovarian): > 100 µM
- TGI (EKVX NSCLC): > 100 µM
- TGI (NCI-H226 lung): > 100 µM
- TGI (M14 melanoma): > 100 µM
- TGI (HOP-62 NSCLC): > 100 µM
- TGI (SF-268 CNS): > 100 µM

SMILES: CC[C@H]1C[C@@H](O)[C@@H]2[C@H](O)[C@H](O)CN2C1
- TGI (MCF7 breast): > 100 µM
- TGI (HCT-116 colon): > 100 µM
- TGI (NCI-H522 lung): > 100 µM
- TGI (U251 CNS): > 100 µM
- TGI (786-0 renal): > 100 µM
- TGI (SK-MEL-2 melanoma): > 100 µM
- TGI (HS 578T breast): > 100 µM
- TGI (MALME-3M melanoma): > 100 µM
- TGI (NCI/ADR-RES ovarian): > 100 µM
- TGI (HL-60(TB) leukemia): > 100 µM
- TGI (DU-145 prostate): > 100 µM
- TGI (OVCAR-8 ovarian): > 100 µM
- TGI (ACHN renal): > 100 µM
- TGI (SW-620 colon): > 100 µM
- TGI (RPMI-8226 leukemia): > 100 µM
- TGI (K-562 leukemia): > 100 µM
- TGI (SK-MEL-5 melanoma): > 100 µM
- TGI (SNB-19 CNS): > 100 µM
- TGI (SN12C renal): > 100 µM
- TGI (IGROV1 ovarian): > 100 µM
- TGI (MDA-MB-435): > 100 µM
- TGI (KM12 colon): > 100 µM
- TGI (OVCAR-3 ovarian): > 100 µM
- TGI (MOLT-4 leukemia): > 100 µM
- TGI (T-47D breast): > 100 µM
- TGI (LOX IMVI melanoma): > 100 µM
- TGI (UACC-257 melanoma): > 100 µM
- TGI (HT29 colon): > 100 µM
- TGI (A549 NSCLC): > 100 µM
- TGI (HCT-15 colon): > 100 µM
- TGI (TK-10 renal): > 100 µM
- TGI (MDA-N): > 100 µM
- TGI (SF-295 CNS): > 100 µM
- TGI (PC-3 prostate): > 100 µM
- TGI (SK-MEL-28 melanoma): > 100 µM
- TGI (HOP-92 NSCLC): > 100 µM
- TGI (OVCAR-4 ovarian): > 100 µM
- TGI (HCC-2998 colon): > 100 µM
- TGI (SNB-75 CNS): > 100 µM
- TGI (NCI-H460 lung): > 100 µM
- TGI (CCRF-CEM leukemia): > 100 µM
- TGI (OVCAR-5 ovarian): > 100 µM
- TGI (SF-539 CNS): > 100 µM
- TGI (SK-OV-3 ovarian): > 100 µM
- TGI (EKVX NSCLC): > 100 µM
- TGI (NCI-H226 lung): > 100 µM
- TGI (M14 melanoma): > 100 µM
- TGI (SF-268 CNS): > 100 µM
